Reference: the supplement of paper PMC4976141
± gives the uncertainty stated by the source.

Columns and labels:
M14 [1] = test: % viability under drug (72 h drug + 72 h recovery), miRNA mimic relative to NTC in DMSO; higher = more surviving cells; conditions: drug used in drug arm: AZ628 1 uM; treatment: drug
Experimental: (§1)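 26 miRNA mimics were transfected into 8 cancer cell lines in triplicate. 48 h post-transfection, cells were treated 72 h with DMSO or a line-specific drug, then recovered 72 h drug-free. Drugs: COLO-205 AZ628 1 uM, MKN-45 crizotinib 1 uM, NCI-H596 paclitaxel 6 uM, EVSA-T GDC-0980 2.5 uM, M14 AZ628 1 uM, HCC-1954 GDC-0980 2.5 uM, NCI-H441 carboplatin 2.5 uM, SKBr3 lapatinib 1 uM. Surviving cells are expressed as % of NTC-transfected cells in DMSO (the NTC drug arm itself is about 30-50%), mean +- SEM.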

MKN-45 [2] = test: as above; conditions: drug used in drug arm: crizotinib 1 uM; treatment: drug
Experimental: as §1

COLO-205 [3] = test: as above; conditions: drug used in drug arm: AZ628 1 uM; treatment: drug
Experimental: as §1

SK-BR-3 [4] = test: as above; conditions: drug used in drug arm: lapatinib 1 uM; treatment: drug
Experimental: as §1

NCI-H596 [5] = test: as above; conditions: drug used in drug arm: paclitaxel 6 uM; treatment: drug
Experimental: as §1

EVSA-T [6] = test: as above; conditions: drug used in drug arm: GDC-0980 2.5 uM; treatment: drug
Experimental: as §1

HCC-1954 [7] = test: as above; conditions: drug used in drug arm: GDC-0980 2.5 uM; treatment: drug
Experimental: as §1

NCI-H441 [8] = test: as above; conditions: drug used in drug arm: carboplatin 2.5 uM; treatment: drug
Experimental: as §1

PC9 = test: cell count fold change with erlotinib, miRNA mimic vs non-targeting control (log2 ratio); higher = more drug-tolerant survivors than NTC; conditions: erlotinib 1 µM; 72 h drug + 72 h drug-free recovery; perturbation: miRNA mimic
M14 [9] = test: % viability in DMSO, miRNA mimic relative to NTC in DMSO; higher = less cytotoxic; conditions: drug used in drug arm: AZ628 1 uM; treatment: DMSO
Experimental: as §1

MKN-45 [10] = test: as above; conditions: drug used in drug arm: crizotinib 1 uM; treatment: DMSO
Experimental: as §1

COLO-205 [11] = test: as above; conditions: drug used in drug arm: AZ628 1 uM; treatment: DMSO
Experimental: as §1

SK-BR-3 [12] = test: as above; conditions: drug used in drug arm: lapatinib 1 uM; treatment: DMSO
Experimental: as §1

NCI-H596 [13] = test: as above; conditions: drug used in drug arm: paclitaxel 6 uM; treatment: DMSO
Experimental: as §1

EVSA-T [14] = test: as above; conditions: drug used in drug arm: GDC-0980 2.5 uM; treatment: DMSO
Experimental: as §1

HCC-1954 [15] = test: as above; conditions: drug used in drug arm: GDC-0980 2.5 uM; treatment: DMSO
Experimental: as §1

NCI-H441 [16] = test: as above; conditions: drug used in drug arm: carboplatin 2.5 uM; treatment: DMSO
Experimental: as §1

Sequence	% viability under drug (M14 [1])	% viability under drug (MKN-45 [2])	% viability under drug (COLO-205 [3])	% viability under drug (SK-BR-3 [4])	% viability under drug (NCI-H596 [5])	% viability under drug (EVSA-T [6])	% viability under drug (HCC-1954 [7])	% viability under drug (NCI-H441 [8])	cell count fold change with erlotinib (PC9)	% viability in DMSO (M14 [9])	% viability in DMSO (MKN-45 [10])	% viability in DMSO (COLO-205 [11])	% viability in DMSO (SK-BR-3 [12])	% viability in DMSO (NCI-H596 [13])	% viability in DMSO (EVSA-T [14])	% viability in DMSO (HCC-1954 [15])	% viability in DMSO (NCI-H441 [16])
AGUUAAUGAAUCCUGGAAAGU	9.17 ± 1.3%	1.55 ± 0.042%	43.4 ± 1.2%	19.2 ± 4%	0.869 ± 0.086%	0.344 ± 0.059%	1.99 ± 0.45%	14.3 ± 0.47%	-4.81	55.5 ± 2.1%	40.6 ± 10%	101.6 ± 0.44%	33.3 ± 1.6%	25.4 ± 6.1%	26.1 ± 11%	48.3 ± 2%	61.6 ± 15%
UAGGUAGUUUCAUGUUGUUGGG	6.29 ± 0.61%	1.52 ± 0.25%	34.7 ± 0.96%	16.1 ± 2.1%	1.48 ± 0.34%	0.1635 ± 0.0015%	1.26 ± 0.1%	6.39 ± 0.21%	-5.25	69.5 ± 28%	49.8 ± 27%	93.2 ± 4.5%	39.6 ± 14%	18.4 ± 2.9%	11.4 ± 8.3%	57.1 ± 7.2%	23.3 ± 13%
ACAGUAGAGGGAGGAAUCGCAG	4.04 ± 0.76%	0.428 ± 0.005%	37.6 ± 4.1%	25.7 ± 0.71%	0.53 ± 0.13%	0.124 ± 0.035%	1.37 ± 0.43%	38.6 ± 6.2%	-3.56	20 ± 3.4%	31.6 ± 9.1%	94 ± 5.5%	67.8 ± 13%	65.6 ± 2.4%	25.6 ± 1.8%	64.5 ± 2.5%	34.6 ± 18%
UCUACAAAGGAAAGCGCUUUCU	6.38 ± 0.2%	1.63 ± 0.29%	47.79 ± 0.091%	26 ± 2.1%	2.12 ± 0.19%	1.13 ± 0.19%	2.02 ± 0.14%	12.8 ± 1.1%	0.22	63 ± 19%	48.8 ± 8.7%	109 ± 3.9%	49.1 ± 3.5%	80.5 ± 9.8%	37.4 ± 6.7%	68.8 ± 1.8%	41.8 ± 3.1%
GUCAUACACGGCUCUCCUCUCU	1.73 ± 0.53%	0.526 ± 0.15%	33 ± 2.9%	12.8 ± 1.4%	0.466 ± 0.077%	0.124 ± 0.028%	1.04 ± 0.13%	3.92 ± 0.51%	-5.7	15.5 ± 2.3%	10.5 ± 0.39%	106 ± 3.9%	17.1 ± 4.5%	9.78 ± 0.74%	3.87 ± 1.8%	29.6 ± 4.2%	8.42 ± 0.15%
AACGCCAUUAUCACACUAAAUA	12.8 ± 0.75%	1.35 ± 0.4%	43 ± 1.6%	11.5 ± 1.4%	0.97 ± 0.026%	0.459 ± 0.079%	2.25 ± 0.44%	10.2 ± 2.8%	0.733	73.5 ± 3.2%	27.1 ± 3.8%	106 ± 2%	22.3 ± 5.5%	62.43 ± 0.46%	23.6 ± 3.1%	81.2 ± 2.9%	13.2 ± 1.1%
CAAAAGUAAUUGUGGAUUUUGU	14.1 ± 0.89%	1.49 ± 0.11%	44.6 ± 3.2%	20.2 ± 1.6%	0.808 ± 0.028%	0.243 ± 0.018%	1.55 ± 0.17%	13.6 ± 2%	-2.88	62.9 ± 9%	40.7 ± 3.5%	106 ± 1.7%	46.3 ± 3.1%	73.6 ± 2.9%	39.3 ± 3.4%	88.3 ± 15%	62.3 ± 2.6%
GCGAGGACCCCUCGGGGUCUGAC	8.07 ± 0.6%	1.84 ± 0.18%	43 ± 1.1%	16.6 ± 6.8%	3.656 ± 0.036%	1.21 ± 0.28%	2.54 ± 0.19%	7.07 ± 0.39%	0.35	43.3 ± 5.2%	53.2 ± 7%	105.2 ± 0.58%	48.4 ± 5%	76.8 ± 10%	40.8 ± 0.66%	56.4 ± 10%	21.6 ± 1.6%
UGUCAGUUUGUCAAAUACCCCA	16.4 ± 2.8%	2.37 ± 0.29%	38 ± 0.5%	27.4 ± 1.9%	0.42 ± 0.093%	0.172 ± 0.0035%	0.617 ± 0.0095%	5.55 ± 0.62%	-5.21	129 ± 10%	142 ± 23%	98.3 ± 4.3%	104 ± 12%	22.8 ± 1.2%	28 ± 2.1%	31.9 ± 3.4%	27.3 ± 6.4%
